Data reported in US9415063B2, “Treatment of neurological disorders” (VELACOR THERAPEUTICS PTY LTD., priority 2007, dated 2016).
Read-outs that look alike come from different tables or passages of the source.

Key:
[1] = system: cultured rat hippocampal slices (CA1 region); assay: Hypoxia induced neurodegeneration in organotypic hippocampal slice cultures; assay type: cell-based, Wistar rat; details: 100 μM; compound present 24 hours pre-, during 3 hours of and 24 hours post-hypoxia; vs hypoxia alone
Procedure: (§1) Wistar rat pups (8-11 days old) were decapitated and the hippocampus rapidly dissected into ice-cold Gey's balanced salt solution supplemented with 4.5 mg/mL glucose. Transverse sections (400 μm) were cut on a McIlwain tissue chopper and placed back into ice-cold Gey's balanced salt solution. Slices were separated and plated onto Millicell CM culture inserts (4 per well) and maintained at 37° C./5% CO2 for 14 days. Maintenance medium consists of 25% heat-inactivated horse serum, 25% Hank's balanced salt solution (HBSS) and 50% minimum essential medium with added Earle's salts (MEM), supplemented with 1 mM glutamine and 4.5 mg/mL glucose. Medium was changed every 3-4 days.
PI fluorescence was detected using a Leica DMIL inverted microscope fitted with a rhodamine filter set. […]
Neuronal damage was assessed using ImageJ software running on a PC. […] Light transmission images were captured prior to the addition of drugs, and PI fluorescence images recorded at the end of the 24-hour recovery period. The area of the CA1 region was then determined from the transmission image. The area of PI fluorescence in the CA1 is measured using the threshold function on ImageJ, and neuronal damage expressed as the percentage of the CA1 in which PI fluorescence is detected above background (Pringle et al., 1997).

[2] = system: cultured rat hippocampal slices (CA1 region); assay: Ischaemia (oxygen glucose deprivation) induced neurodegeneration in organotypic hippocampal slice cultures; assay type: cell-based, Wistar rat
Procedure: as §1
(§2) Neuronal damage was assessed using ImageJ software running on a PC. Images being captured using a monochrome CCD camera and saved for offline analysis. Light transmission images were captured prior to the addition of drugs, and PI fluorescence images recorded at the end of the 24-hour recovery period. The area of the CA1 region was then determined from the transmission image. The area of PI fluorescence in the CA1 is measured using the threshold function on ImageJ, and neuronal damage expressed as the percentage of the CA1 in which PI fluorescence is detected above background (Pringle et al., 1997).
(§3) In this case the sodium selenate was made to 50 mM in SFM, then serially diluted to 25 mM, 10 mM and 1 mM, each of these used at 10 μL/mL to give final concentrations of 10 μM, 100 μM, 250 μM and 500 μM. Sodium selenite and selenomethionine as before. An experiment to assess the toxicity of sodium selenate at these higher concentrations was run in parallel with the OGD (Results FIG. 4).

[3] = system: cultured rat hippocampal slices; assay: Tissue culture toxicity screen in organotypic hippocampal slice cultures
Procedure: as §1, §2
A preliminary toxicity screen was carried out on the compounds to determine tissue culture exposure levels that would cause toxicity. […] Damage was measured after 24 hours and 48 hours.
as §3

PTZ induced seizures = details: for Number of seizures: 30 minutes observation; for Number of seizures / Duration of seizure activity / Number of severe seizures / Latency to seizure onset: mean±SEM; for Latency to seizure onset: not significant vs vehicle
Procedure: All animal experiments were carried out according to the National Institute of Health (NIH) guidelines for the care and use of laboratory animals, and approved by the Ethical Committee of the National Laboratory Animal Center, Kuopio, Finland. Altogether 30 adult male Sprague-Dawley rats (Taconic, Denmark) weighing 200-240 g were used. Animals were housed at a standard temperature (22±1° C.) and in a light-controlled environment (lights on from 7 am to 8 pm) with ad libitum access to food and water.
Animals were grouped as follows: • 10 rats treated with vehicle (sterile water as drinking water). • 10 rats treated with sodium selenate anhydrous (120 microgram in 100 mL sterile water), p.o in drinking water for 7 days prior to PTZ injection. • 10 rats treated with sodium selenate anhydrous (1.2 milligram in 100 mL sterile water), p.o in drinking water for 7 days prior to PTZ injection. PTZ Induced Seizures
Pentylenetetrazol (PTZ) (60 mg/kg) is administered intraperitoneally (i.p., 2 mL/kg in saline) to male Sprague-Dawley rats.
Sodium selenate is administered p.o in drinking water for 7 days prior to PTZ injection. The rats have ad libitum access to water (normal daily consumption of water is 30 mL/rat/day).
The incidence of seizures (seizure and severe seizure), the latency for the first seizure appearance and the duration of seizure activity were used as indices of anticonvulsant effect. Seizure numbers were not counted if the animal died. […] Animals that died were assigned the maximum seizure duration of 30 minutes. […] Severe seizure was defined as a prolonged seizure involving stretching and twisting convulsions.
Values are presented as percentages and differences are considered to be statistically significant at the P<0.05 level. Statistical analysis was performed using StatsDirect software. Differences among groups were analyzed by 1-way-ANOVA followed by Dunnet's test (comparison to the control (=vehicle treated PTZ rats) group).

[4] = 100 μM, compound present 24 hours pre-, during 1 hour of and 24 hours post-ischaemia, vs OGD alone
[5] = 120 μg in 100 mL drinking water p.o. 7 days prior to PTZ
[6] = 1.2 mg in 100 mL drinking water p.o. 7 days prior to PTZ

In the case of `O=C(O)c1ccc(C2=C3C=CC(=N3)C(c3ccc(C(=O)O)cc3)=c3ccc([nH]3)=C(c3ccc(C(=O)O)cc3)c3ccc([n-]3)C(c3ccc(C(=O)O)cc3)c3ccc2[n-]3)cc1.[Cl-].[Mn+3]` (stereo not drawn) [MnTBAP, Mn(III)tetrakis(4-benzoic acid)porphyrin chloride, reference compound], the “Neuronal damage (PI fluorescence in CA1) after hypoxia” value [1] is reported as “prevented” and the “Neuronal damage (PI fluorescence in CA1) after OGD ischaemia” value (shortened to “Neuronal damage … after OGD ischaemia”) [2, 4] is reported as “prevented”.

With `O=[Se](O)O` [Sodium selenite, reference compound] the “Concentration above which compound was toxic in tissue culture” value ([3]; serum free media, tested at 5 μM, 25 μM and 100 μM, damage measured after 24 hours and 48 hours) was “above 5 μM”.

In the case of `O=[Se](=O)(O)O` [sodium selenate], the “Toxicity in tissue culture in the absence of hypoxia” value ([3]; 500 μM, run in parallel with the OGD experiment (FIG. 4)) is reported as “neurotoxicity”, the Tissue culture toxicity ([3]; serum free media, any concentration tested up to 100 μM, 24 hours and 48 hours) is reported as “not found to be toxic” and the “Neuronal damage (PI fluorescence in CA1) after hypoxia” value [1] is reported as “Significant attenuation of damage”. For the same compound, the “Neuronal damage … after OGD ischaemia” value [2, 4] was “Significant attenuation of damage”, the “Neuronal damage … after OGD ischaemia” value ([2]; 250 μM, pre, during and post-ischaemia, vs OGD alone) was “Significant attenuation of damage” and the “Neuronal damage … after OGD ischaemia” value ([2]; 500 μM, pre, during and post-ischaemia) was “significant increase in toxicity”. The Number of seizures (PTZ induced seizures; [5]) was 8.5±2.1, the “Duration of seizure activity” value (PTZ induced seizures; [5]) was 770.9 ± 189.9 s and the “Number of severe seizures” value (PTZ induced seizures; [5]) was 0.8±0.1. The “Latency to seizure onset” value (PTZ induced seizures; [5]) was 217.6 ± 117.6 s, the Mortality (PTZ induced seizures; 120 μg in 100 mL drinking water p.o. for 7 days prior to PTZ 60 mg/kg i.p., 10 rats) was 1 animal and the Number of seizures (PTZ induced seizures; [6]) was 9.9±2.2. For the same compound, the “Duration of seizure activity” value (PTZ induced seizures; [6]) was 808.6 ± 126.1 s, the “Number of severe seizures” value (PTZ induced seizures; [6]) was 0.9±0.1 and the “Latency to seizure onset” value (PTZ induced seizures; [6]) was 107.6 ± 26.9 s.
